Drawing on publication PMC6192261 (Biochemical and biophysical research communications, 2018), this text covers Kd for three compounds.

One may read the Kd as a measure of binding affinity in units of concentration.

The assay deals with NgDapB (4-hydroxy-tetrahydrodipicolinate reductase from Neisseria gonorrhoeae) (Neisseria gonorrhoeae, UniProt Q5F5Y7). Put plainly: isothermal titration calorimetry. Type of assay: binding. A general note: In ITC the heat of successive injections is recorded.
Chain of NgDapB (4-hydroxy-tetrahydrodipicolinate reductase from Neisseria gonorrhoeae) (Q5F5Y7 whole entry): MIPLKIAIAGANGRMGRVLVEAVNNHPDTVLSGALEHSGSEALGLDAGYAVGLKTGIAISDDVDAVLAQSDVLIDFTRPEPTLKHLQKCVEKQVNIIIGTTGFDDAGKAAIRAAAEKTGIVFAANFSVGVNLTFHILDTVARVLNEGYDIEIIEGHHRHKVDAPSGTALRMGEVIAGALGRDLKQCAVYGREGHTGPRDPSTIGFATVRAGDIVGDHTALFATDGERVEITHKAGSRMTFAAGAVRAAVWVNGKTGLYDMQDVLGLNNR
Compound `NC(=O)C1=CN([C@@H]2O[C@H](COP(=O)(O)OP(=O)(O)OC[C@H]3O[C@@H](n4cnc5c(N)ncnc54)[C@H](O)[C@@H]3O)[C@@H](O)[C@H]2O)C=CC1` [NADH] had a Kd of 2.5 ± 0.5 µM. With `NC(=O)C1=CN([C@@H]2O[C@H](COP(=O)(O)OP(=O)(O)OC[C@H]3O[C@@H](n4cnc5c(N)ncnc54)[C@H](OP(=O)(O)O)[C@@H]3O)[C@@H](O)[C@H]2O)C=CC1` [NADPH] the figure was 4.8 ± 0.6 µM; with `O=C(O)c1cccc(C(=O)O)n1` [2,6-PDC, 2,6-pyridine dicarboxylic acid], 21.2 ± 0.7 µM.
